Measured values from PMC6222747, “Synthesis and Structure-Activity Relationship of Daphnetin Derivatives as Potent Antioxidant Agents” (Molecules : A Journal of Synthetic Chemistry and Natural …, 2018).

Assays:
[1] = DPPH radical scavenging assay; format: biochemical; details: for EC50: DPPH radical scavenging, 30 min at room temperature, absorbance 517 nm, triplicate; for DPPH antioxidant activity compared with DAP 1, result in words: DPPH assay
Method: (§1) The antioxidant activity is influenced by many factors, which cannot be fully described with a single antioxidant assay. Thus, in this study, antioxidant activities in vitro were evaluated using the free radical scavenging effect on 2,2′-diphenyl-1-picrylhydrazyl (DPPH), 2,2′-azinobis-(3-ethylbenzthiazoline-6-sulfonate) cation (ABTS^+). and the ferric reducing power (FRAP) assay, respectively, according to the literature with a slight modification.
Each sample in an ethanol solution (0.1 mL) was added to 3.9 mL DPPH ethanol solution (0.1 mmol/L). The solution was vortexed for 10 s and incubated at room temperature for 30 min. […] The Trolox standard solution (concentration range: 0–0.4 mmol/L) in ethanol was analyzed under the same conditions as those used for calibration. […]

[2] = Ferric reducing power (FRAP) assay; format: biochemical; details: for reducing antioxidant power, fold higher than that of the standard antioxidant Trolox: relative to Trolox; for reducing antioxidant power (FRAP), result in words: compared with daphnetin or the parent compound
Method: as §1
The FRAP (ferric reducing antioxidant power) reagent was prepared with acetate buffer (300 mmol/L, pH 3.6), 2,4,6-tripyridyl-s-triazine (TPTZ) (10 mmol/L in HCl, 40 mmol/L) and FeCl3 (20 mmol/L). The proportions were 10:1:1 (v:v:v), respectively. Each sample solution was added to the FRAP reagent (1:30, v:v) and incubated at 37 °C for 5 min. The absorbance was determined at 593 nm using a spectrophotometer (Hitachi U-2800 Spectrophotometer, Tokyo, Japan). The Trolox standard solution (concentration range: 0–0.4 mmol/L) in ethanol was analyzed under the same conditions as those used for the calibration. The values of the reducing power were determined using a calibration curve of Trolox and expressed as the Trolox equivalent ([…], mmolTrolox/mmol sample).

[3] = system: mononuclear cells of umbilical blood; set-up: method as in PMID 15113635; details: cited from earlier work
[4] = Metabolic stability assay in vitro (UGT and COMT incubation system, S9 fraction); format: in vitro ADME, human; details: for half-life: UGT and COMT incubation system, pooled human S9, 2 mM UDPGA and 0.2 mM SAM, 37 °C, pH 7.4, read-out: metabolic elimination t1/2
Text: The simultaneous improvement of utility as a drug and pharmacological activity is still a challenge for the structural optimization of lead compounds. From the view of the chemical structure, the catechol group is not only the pharmacophore of the coumarins but also the susceptible group for the attack of phase II metabolic enzymes. As phenolic hydroxyls, catechol coumarins primarily undergo conjugative reactions mediated by phase II metabolizing enzymes, including uridine-5-diphosphate glucuronosyl transferase (UGT) and catechol-O-methyltransferase (COMT). […] In summary, 4-carbethoxyl DAP 9 holds strong potential to be developed as an antioxidant agent with excellent antioxidant activity and good pharmacokinetic properties.
Metabolic stability assay in vitro
To determine the effects of a combination of glucuronidation and methylation, daphnetin and compound 9 were
incubated with S9 fraction in the presence of two cofactors (2 mM UDPGA and 0.2 mM SAM). The incubation mixture
contained pooled human S9 fraction (0.02 mg mL-1 protein), 5 mM MgCl2, 2 mM UDPGA, 0.2 mM SAM and 5 mM
daphnetin derivatives (dissolved in DMSO, final concentration 1%) in 200 mL of 50 mM Tris buffer (pH 7.4), as
described in the reported manuscript. Controls were incubated in the absence of UDPGA and SAM. After incubation at
37 °C for 0 to 6 0 min, the reactions were terminated by adding […] of cold acetonitrile. The samples were
centrifuged at 20 000 g for 20 min. The supernatants (200 mL) were subjected to assay for the time - dependent
esculetins depletion using HPLC.
Daphnetin and compound 9 were analyzed by a ultra - fast l iquid chromatography spectrometry system (Shimadzu,
Kyoto, Japan), equipped with two LC - 20AD pumps, a DGU - 20A3 vacuum degasser, a SIL - 20ACHT auto - sampler, a
CTO - 20AC column oven, an SPD - M 20A diode - array detector (DAD), a CBM - 20A communicati ons bus module, a […]
the equation: t1/2 = ln2/-k, where k represents the terminal elimination rate constant and is calculated as the negative […]

[5] = ABTS+ radical scavenging assay; format: biochemical; details: 3 min at room temperature, absorbance 734 nm, triplicate
Method: as §1
The mixture was incubated in the dark at room temperature for 15–16 h before use. […] Each sample solution (0.1 mL) was added to 3.9 mL ABTS^+ solution, and the absorbance was measured at room temperature after 3 min. The Trolox standard solution (concentration range: 0–0.4 mmol/L) in ethanol was analyzed under the same conditions as those used for the calibration. […]

human single cell DNA = system: human single cell DNA; set-up: method as in PMID 12561251; details: cited from earlier work

| Compound | EC50 [1] | EC50 [5] | reducing antioxidant power (FRAP), result in words [2] | also measured |
| --- | --- | --- | --- | --- |
| O=c1cc(C(F)(F)F)c2ccc(O)c(O)c2o1 [Compound 5, 7,8-Dihydroxy-4-trifluoromethyl-2H-chromen-2-one] | 45.7 ± 1.26 µM | 75.2 ± 1.58 µM | three-fold increase in reducing antioxidant power |  |
| O=C(O)Cc1cc(=O)oc2c(O)c(O)ccc12 [Compound 9, 2-(7,8-Dihydroxy-2-oxo-2H-chromen-4-yl)acetic acid] | 31.4 ± 0.68 µM |  | three-fold increase in reducing antioxidant power | half-life [4]: 96.5 min; t1/2 of compound 9 relative to that of compound 1 ([4]; UGT and COMT incubation systems in vitro): five-fold longer; EC50 ([5]; listed as 4-CH2COOH DAP (9)): 72.3 ± 2.7 µM |
| O=c1oc2c(O)c(O)ccc2cc1-c1ccccc1 [Compound 13] | 43.7 ± 2.08 µM | 108 ± 1.42 µM |  | DPPH antioxidant activity compared with DAP 1, result in words [1]: more effective |
| N#Cc1cc2ccc(O)c(O)c2oc1=O [Compound 14] | 47 ± 2.05 µM | 95.8 ± 4.18 µM |  | reducing antioxidant power, fold higher than that of the standard antioxidant Trolox [2]: 3 fold |
| CC(=O)c1cc2ccc(O)c(O)c2oc1=O [Compound 15] | 50.6 ± 0.61 µM | 80.52 ± 0.61 µM |  | reducing antioxidant power, fold higher than that of the standard antioxidant Trolox [2]: 3 fold |
| O=c1oc2c(O)c(O)ccc2cc1-c1nc2ccccc2s1 [Compound 19] | 71.3 ± 2.4 µM | 86.6 ± 3.17 µM | slightly reduced antioxidant activity |  |
| NC(=O)c1c(-c2nc3ccccc3s2)c(=O)oc2c(O)c(O)ccc12 [Compound 22, 3-(benzo[d]thiazol-2-yl)-7,8-dihydroxy-2-oxo-2H-chromene-4-carboxamide] | 66.8 ± 1.38 µM | 122 ± 4.41 µM | lower antioxidant activity compared with that of compound 19 |  |
| O=c1oc2c(O)c(O)ccc2c(-c2nnn[nH]2)c1-c1nc2ccccc2s1 [Compound 23, 3-(Benzo[d]thiazol-2-yl)-7,8-dihydroxy-4-(1H-tetrazol-5-yl)-2H-chromen-2-one] | 168 ± 11.6 µM | 121.7 ± 0.22 µM | lower antioxidant activity compared with that of compound 19 |  |
| Cc1c(C(F)(F)F)c2ccc(O)c(O)c2oc1=O [Compound 24, 7,8-Dihydroxy-3-methyl-4-(trifluoromethyl)-2H-chromen-2-one] | 53.8 ± 2.25 µM | 107 ± 6.23 µM |  |  |
| Methyl 2-(7,8-dihydroxy-2-oxo-2H-chromen-4-yl)acetic acid [Compound 10] | 50.2 ± 1.12 µM | 222.7 ± 1.84 µM | significant decrease in antioxidant activity |  |

Further compounds by falling EC50 [1], results first:

| EC50 [1] | EC50 [5] | Compound | reducing antioxidant power (FRAP), result in words [2] | also measured |
| --- | --- | --- | --- | --- |
| 698 ± 5.22 µM | 4560 ± 50.1 µM | CC(=O)Oc1ccc2ccc(=O)oc2c1OC(C)=O [Compound 12, 2-oxo-2H-Chromene-7,8-diyl diacetate] |  |  |
| 130 ± 3.54 µM | 108 ± 6.35 µM | O=C(O)c1c(-c2nc3ccccc3s2)c(=O)oc2c(O)c(O)ccc12 [Compound 21, 3-(Benzo[d]thiazol-2-yl)-7,8-dihydroxy-2-oxo-2H-chromene-4-carboxylic acid] | significant decrease in antioxidant activity |  |
| 85.6 ± 2.13 µM | 224.5 ± 1.94 µM | Cc1cc(=O)oc2c(O)c(O)ccc12 [Compound 2, 7,8-Dihydroxy-4-methyl-2H-chromen-2-one] | decreased activities of daphnetin but were still superior to Trolox | protection of mononuclear cells of umbilical blood from oxidative attack, compared with resveratrol [3]: stronger activities in protecting mononuclear cells of umbilical blood from oxidative attack than resveratrol; protection of human single cell DNA from oxidative attack, compared with curcumin and resveratrol (human single cell DNA): more effective in protection of human single cell DNA from oxidative attack than curcumin and resveratrol |
| 65.5 ± 2.84 µM | 234.7 ± 2.03 µM | CC(C)(C)c1cc(=O)oc2c(O)c(O)ccc12 [Compound 4, 7,8-Dihydroxy-4-tert-butyl-2H-chromen-2-one] | decreased activities of daphnetin but were still superior to Trolox |  |
| 62.2 ± 3.73 µM | 238 ± 4.47 µM | [N-]=[N+]=NCc1cc(=O)oc2c(O)c(O)ccc12 [Compound 8, 7,8-Dihydroxy-4-azidemethyl-2H-chromen-2-one] | markedly decreased antioxidant activity |  |
| 55.6 ± 1.48 µM | 91.2 ± 2.29 µM | C#CCNC(=O)c1cc2ccc(O)c(O)c2oc1=O [Compound 18] | this situation did not change |  |
| 55.6 ± 0.78 µM | 198 ± 28.2 µM | O=c1cc(-c2ccccc2)c2ccc(O)c(O)c2o1 [Compound 3, 7,8-Dihydroxy-4-phenyl-2H-chromen-2-one] | decreased activities of daphnetin but were still superior to Trolox | DPPH antioxidant activity compared with DAP 1, result in words [1]: lower than that of DAP 1 |
| 53.2 ± 2.02 µM | 241 ± 2.52 µM | Cc1c(C)c2c(c(C)c1O)CCC(C)(C(=O)O)O2 (stereo not drawn) [Trolox, 6-hydroxy-2,5,7,8-tetramethylchroman-2-carboxylic acid, reference compound] |  |  |
| 46.2 ± 1.45 µM | 159 ± 4.63 µM | O=c1ccc2ccc(O)c(O)c2o1 [Compound 1, 7,8-dihydroxycoumarin, reference compound] |  | reducing antioxidant power, fold higher than that of the standard antioxidant Trolox [2]: 2.5 fold; protection of mononuclear cells of umbilical blood from oxidative attack, compared with resveratrol [3]: stronger activities in protecting mononuclear cells of umbilical blood from oxidative attack than resveratrol; half-life [4]: 20.3 min |
| 45.6 ± 1.48 µM | 173 ± 4.83 µM | COc1cc2ccc(=O)oc2c(O)c1O [Compound 11, Fraxetin, reference compound] |  |  |
| 44 ± 0.89 µM | 138.9 ± 0.14 µM | CCOC(=O)c1cc2ccc(O)c(O)c2oc1=O [Compound 17] | this situation did not change |  |
| 37.7 ± 1.16 µM | 146 ± 5.77 µM | O=C(O)c1cc2ccc(O)c(O)c2oc1=O [Compound 16] | little effect on its antioxidant activity |  |
